The subject of test [1] is Fibrosarcoma Meth A. The test can be described thus: Test Method B: intrapleurally inoculated Meth A tumor in mice, injection into pleural cavity, mean survival time. It counts as in vivo, BALB/c mice. On the set-up: dose or concentration left out as unconfirmed. Conditions: for Anti-tumor activity (%) *d: comparison of mean survival time of medicated group (T) and control group (C), into pleural cavity three times; for Mean survival time: into pleural cavity three times (before 14 days, after 1 hour and after 3 days of tumor implantation), 5 x 10^5 Meth A cells intrapleurally.
Experimental: Groups of eight female BALB/c mice, aged 8-9 weeks and weighing 18.0-22.5 g were used.
Fibrosarcoma Meth A (hereinafter referred to as Meth A) was successively transferred every 7 days into BALB/c mice by intraperitoneal inoculation of the ascites cells thereof and the Meth A in the ascites cells as harvested 6 or 7 days after the inoculation was used as tumor cells.
Each of the BALB/c mice was inoculated intrapleurally with 5 x 10^5 Meth A cells in 0.1 ml Hanks solution.
Test compound was dissolved in phosphate buffer saline solution, and was injected into pleural cavity to each of the mice in doses of 100 pg/0.05 ml/mouse three times, i.e. before 14 days, after 1 hour and after 3 days of tumor implantation.
The antitumor activity of the test compound was estimated by comparing mean survival time of the two groups. • T : Mean survival time of the medicated group • C : Mean survival time of the control group

Test [2] concerns Fibrosarcoma Meth A. The experiment in a line: Test Method A: intradermally inoculated Meth A tumor in mice, intratumoral injection of test compound, tumor growth inhibition. It counts as in vivo, BALB/c mice. Conditions: 100 µg/mouse intratumorally once daily from Day 1 to Day 4 postimplant; for Mean of two diameters of the growing tumor: 1 x 10^5 Meth A cells intradermally; for responders at 0.1 mg / inhibition in vivo at 0.1 mg: Meth-A; for responders at 0.1 mg: read-out: Ratio of tumor free mice [Number of tumor free mice/ Number of mice used as a group] (converted); for inhibition in vivo at 0.1 mg: Mus musculus, read-out: Tumor growth inhibition (%) [(1-T/c)x100]. The procedure: Groups of six female BALB/c mice, aged 12 weeks and weighing 19 - 21 g were used.
Fib,rosarcoma Meth A (hereinafter referred to as Meth A) was successively transferred every 7 days into BALB/c mice by intraperitoneal inoculation of the ascites cells thereof and the Meth A in the ascites cells as harvested 6 days after the inoculation was used as tumor cells.
Each of the BALB/c mice was inoculated intradermally with 1 x 10^5 Meth A cells in 0.05 ml Hanks solution.
Test compound was dissolved in 0.5% methylcellulose saline solution, and was intratumorally injected to each of the mice in doses of 100 µg/mouse once daily from Day 1 to Day 4 postimplant.
The control group was given with a vehicle alone in the same way.
The antitumor effectiveness of the test compound was estimated by tumor growth inhibition (1-T/C). • T: Mean diameter of the growing tumor of the medicated group • C: Mean diameter of the growing tumor of the control group

From EP0071892A2, “Phospholipid derivatives, process for preparation thereof and pharmaceutical composition of the same” (priority 1981, dated 1983) come the findings set out here.

Like-named read-outs stand apart in the source and are kept apart here.

For `CCCCCCCCCCCCCCCCCCOCC(COP(=O)([O-])OCC[n+]1ccccc1)OC` (racemic) [Example 1, (rac)-l-O-octadecyl-2-0-methyl-glycerol-3-[2-(1-pyridinio)ethyl]phosphate], in test [1], the “Anti-tumor activity (%) *d” value is recorded as 367% and the Mean survival time was determined as 22.0 days. Besides, in test [2] (Day 14), the “Mean of two diameters of the growing tumor” value (“Mean … of the growing tumor” below) is on record as 0 mm, the responders at 0.1 mg is 100% and the inhibition in vivo at 0.1 mg is 100%. In addition, in test [2] (Day 21), the “Ratio of tumor free mice [Number of tumor free mice/ Number of mice used as a group]” value is on record as 6/6, the “Mean … of the growing tumor” value is listed as 0 mm and the inhibition in vivo at 0.1 mg is 100%.

On to `CCCCCCCCCCCCCCCCOCC(COP(=O)(O)OCCN1CCN(C)CC1)OC` (racemic) [3-(2), (rac)-1-0-Hexadecyl-2-0-methyl-glycerol-3-[2-(4-methyl-l-piperazinyl)ethyl]phosphate], for which, in test [1], the “Anti-tumor activity (%) *d” value was 350% and the Mean survival time was found to be 21.0 days.

`CCCCCCCCCCCCCCCCCCOCC(COP(=O)(O)OCCN1CCN(C)CC1)OCC` (racemic) [3-(1), (rac)-l-O-Octadecyl-2-0-ethyl-glycerol-3-[2-(4-methyl-l-piperazinyl)ethyl]phosphate]: in test [1], the “Anti-tumor activity (%) *d” value is reported as 342% and the Mean survival time came to 20.5 days. Besides, in test [2] (Day 14), the “Mean … of the growing tumor” value is reported as 0 mm, the responders at 0.1 mg was 100% and the inhibition in vivo at 0.1 mg was found to be 100%. Besides, in test [2] (Day 21), the “Ratio of tumor free mice [Number of tumor free mice/ Number of mice used as a group]” value is given as 6/6, the “Mean … of the growing tumor” value worked out at 0 mm and the inhibition in vivo at 0.1 mg amounted to 100%.

As for `CCCCCCCCCCCCCCCCCCOCC(COP(=O)([O-])OCC[N+](C)(C)C)OC` (racemic) [*e, reference compound], in test [1], the “Anti-tumor activity (%) *d” value worked out at 242% and the Mean survival time came to 14.5 days.

For the compound `CCCCCCCCCCCCCCCCCCOCC(COP(=O)(O)OCCN1CCN(CCO)CC1)OC` (racemic) [3-(7), (rac)-1-0-Octadecyl-2-0-methyl-glycerol-3-[2-[4-(2-hydroxyethyl)-1-piperazinyl]ethyl]phosphate], in test [1], the “Anti-tumor activity (%) *d” value is listed as 325% and the Mean survival time is 19.5 days.

`CCCCCCCCCCCCCCCCCCOCC(COP(=O)([O-])OCC[n+]1ccccn1)OC` (racemic) [3-(12), (rac)-1-0-Octadecyl-2-0-methyl-glycerol-3-[2-(1-pyridazinio)ethyl]phosphate]: in test [1], the “Anti-tumor activity (%) *d” value is listed as 333% and the Mean survival time came to 20.0 days.

In the case of `CCCCCCCCCCCCCCCCCCOCC(COP(=O)(O)OCCN1CCCCC1)OC` (racemic) [3-(14), (rac)-l-O-Octadecyl-2-0-methyl-glycerol-3-(2-piperidinoethyl)phosphate], in test [1], the “Anti-tumor activity (%) *d” value came out at 325% and the Mean survival time amounted to 19.5 days.

`CCCCCCCCCCCCCCCCCCOCC(COP(=O)([O-])OCC[n+]1ccccc1)SC` (racemic) [3-(31), (rac)-1-0-Octadecyl-2-methylthio-1,3-propanediol-3-[2-(l-pyridinio)ethyl]phosphate]: in test [1], the “Anti-tumor activity (%) *d” value is reported as 358% and the Mean survival time is 21.5 days.

`CCCCCCCCCCCCCCCCCCOCC(COP(=O)([O-])OCC[n+]1cccc(C)c1)OC` (racemic) [3-(10), (rac)-1-0-Octadecyl-2-0-methyl-glycerol-3-(2-(3-methyl-1-pyridinio)ethyl]phosphate]: in test [1], the “Anti-tumor activity (%) *d” value is 364% and the Mean survival time turned out to be 25.5 days.
